According to article PMC9504056, “A Novel L-Phenylalanine Dipeptide Inhibits the Growth and Metastasis of Prostate Cancer Cells via Targeting DUSP1 and TNFSF9” (International Journal of Molecular Sciences, 2022):

How the values were obtained:
TNFSF9 = target: T1, TNFSF9 (Homo sapiens, UniProt P41273); assay: cellular thermal shift assay (CETSA), Western blot; assay type: cell-based; settings: PC3 cells treated 2 h with 0.01-100 µmol/L; heated at 53 °C for 3 min
T1 construct: endogenous protein in human PC3 prostate cancer cells, detected by Western blot (Abcam ab68185)
T1 sequence (P41273 whole entry): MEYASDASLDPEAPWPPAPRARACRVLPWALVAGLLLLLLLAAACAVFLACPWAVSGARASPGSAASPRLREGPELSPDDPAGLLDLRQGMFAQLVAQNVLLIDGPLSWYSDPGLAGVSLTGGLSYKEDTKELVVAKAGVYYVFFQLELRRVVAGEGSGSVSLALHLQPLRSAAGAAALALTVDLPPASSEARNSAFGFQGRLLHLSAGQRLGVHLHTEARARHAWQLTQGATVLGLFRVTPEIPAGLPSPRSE

DUSP1 = target: T2, DUSP1 (Homo sapiens, UniProt P28562); assay: cellular thermal shift assay (CETSA), Western blot; assay type: cell-based; settings: PC3 cells treated 2 h with 0.01-100 µmol/L; heated at 53 °C for 3 min
T2 construct: endogenous protein in human PC3 prostate cancer cells, detected by Western blot (Abcam ab61201)
T2 sequence (P28562 1-367): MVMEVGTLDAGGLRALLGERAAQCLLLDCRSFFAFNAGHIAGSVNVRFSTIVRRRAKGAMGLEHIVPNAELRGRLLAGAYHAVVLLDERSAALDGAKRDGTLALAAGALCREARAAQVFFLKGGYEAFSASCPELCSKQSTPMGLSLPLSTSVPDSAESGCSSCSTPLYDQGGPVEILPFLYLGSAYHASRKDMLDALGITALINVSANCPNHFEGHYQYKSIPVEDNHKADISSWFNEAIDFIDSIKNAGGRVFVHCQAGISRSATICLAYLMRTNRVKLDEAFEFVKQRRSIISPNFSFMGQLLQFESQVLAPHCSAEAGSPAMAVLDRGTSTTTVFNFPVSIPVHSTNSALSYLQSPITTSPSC

For `CCN(CC)CCOc1ccc(C[C@H](NC(=O)c2ccc(OCc3ccccc3)cc2)C(=O)N[C@H](CO)Cc2ccccc2)cc1` [HXL131], which “cellular thermal shift assay (CETSA), Western blot” value (TNFSF9) is on record?
The value was “HXL131 could stably bind DUSP1 and TNFSF9 proteins”.

And the “cellular thermal shift assay (CETSA), Western blot” value (DUSP1)?
The value was “HXL131 could stably bind DUSP1 and TNFSF9 proteins”.
